# Data reported in patent publication US4558144A, “Volatile metal complexes” (Corning Glass Works, priority 1984, dated 1985).
# Columns and labels:
# [1] = Thermogravimetric analysis (TGA), volatility; type: physicochemical; conditions: for volatilization behavior / decomposition in TGA / T1/2 (temperature at which one-half of the sample has been evaporated): 20 mg sample, 10° C./min, argon; for T1/2 (temperature at which one-half of the sample has been evaporated): TGA; for T1/2 volatility: Table III, comparative data
# Procedure: A thermogravimetric analysis (TGA) of the product was carried out on a 20 mg sample of the material, heated at a rate of 10° C./min under an argon atmosphere. A thermogravimetric curve resulting from such a study, identified as "TGA-Mg(hfa)2.1,2-DME", is reproduced in FIG. 1 of the drawing.
# [2] = Vapor pressure; type: physicochemical
# [3] = Thermal stability, heating in evacuated/sealed ampoules at 200° C. for 24 hours; type: physicochemical; conditions: ampoule, compared with corresponding THF adduct
# Procedure: The thermal stability of Mg(hfa)2.1,2-DME is evidenced not only by the TGA data set forth in FIG. 1, but also by investigations as to the extent and nature of the decomposition of Mg(hfa)2.1,2-DME after prolonged heating at temperatures in the 100°-200° C. range.
# As in the case of the magnesium complex, the thermal stability of Zn(hfa)2.1,2-DME is evidenced not only by the observed rapid and complete TGA volatilization behavior shown in FIG. 2, but also by measuring residual gas pressure after heating a sample of the material in a sealed ampoule at 200° C. for 24 hours.
# [4] = at 200° C.; EP No. 0103446; cited from earlier work
SMILES,volatilization behavior / decomposition in TGA ([1]; in words),T1/2 (temperature at which one-half of the sample has been evaporated) [1],T1/2 volatility [1] [°C],residual pressure after heating [3],sample discoloration after heating [3],also measured
"COCCOC.O=C(C=C([O-])C(F)(F)F)C(F)(F)F.O=C(C=C([O-])C(F)(F)F)C(F)(F)F.[Mg+2] [Mg(hfa)2.1,2-DME]","rapid and complete volatilization of the complex over a narrow temperature range, indicating the absence of detectable decomposition",about 170 °C,170,lower residual pressure,less discoloration,vapor pressure ([2]; at about 120° C.): 10 mm (Hg)
"O=C(C=C([O-])C(F)(F)F)C(F)(F)F.O=C(C=C([O-])C(F)(F)F)C(F)(F)F.[Mg+2].c1cnc2c(c1)ccc1cccnc12 [Mg(hfa)2.1,10-phenanthroline, reference compound]",,,295,,,
"C1CCOC1.C1CCOC1.O=C(C=C([O-])C(F)(F)F)C(F)(F)F.O=C(C=C([O-])C(F)(F)F)C(F)(F)F.[Mg+2] [Mg(hfa)2.2THF, reference compound]",,180 °C,,,,volatilization without decomposition [4]: can be volatilized without decomposition
"COCCOC.O=C(C=C([O-])C(F)(F)F)C(F)(F)F.O=C(C=C([O-])C(F)(F)F)C(F)(F)F.[Zn+2] [Zn(hfa)2.1,2-DME]","rapid and complete vaporization over a narrow range of temperatures, indicating no detectable thermal decomposition",162 °C,162,lower residual pressure,less discoloration,"T1/2 temperature compared with Zn(hfa)2.2THF ([1]; same TGA conditions, in words): only slightly higher than the T1/2 temperature of Zn(hfa)2.2THF; vapor pressure ([2]; at 125° C.): about 16 mm (Hg)"
"O=C(C=C([O-])C(F)(F)F)C(F)(F)F.O=C(C=C([O-])C(F)(F)F)C(F)(F)F.[Zn+2].c1cnc2c(c1)ccc1cccnc12 [Zn(hfa)2.1,10-phenanthroline, reference compound]",,,310,,,
"O=C(C=C([O-])C(F)(F)F)C(F)(F)F.O=C(C=C([O-])C(F)(F)F)C(F)(F)F.[Zn+2].c1ccc(-c2ccccn2)nc1 [Zn(hfa)2.2,2'-bipyridine, reference compound]",,,295,,,
